From US6268391A, “Benzylidene-1,3-dihydro-indol-2-one derivatives a receptor tyrosine kinase inhibitors, particularly of Raf kinases” (Glaxo Wellcome Inc., priority 1997, dated 2001)

Each compound was assayed against T1, Human cRaf1 (Homo sapiens, UniProt P04049) (assay: Raf kinase assay (cRaf1 assay / Raf/MEK cascade assay)). Details: Table 3; read-out: Raf Kinase activity.
T1 construct: poly-histidine (C); made in house
T1 sequence (P04049 whole entry): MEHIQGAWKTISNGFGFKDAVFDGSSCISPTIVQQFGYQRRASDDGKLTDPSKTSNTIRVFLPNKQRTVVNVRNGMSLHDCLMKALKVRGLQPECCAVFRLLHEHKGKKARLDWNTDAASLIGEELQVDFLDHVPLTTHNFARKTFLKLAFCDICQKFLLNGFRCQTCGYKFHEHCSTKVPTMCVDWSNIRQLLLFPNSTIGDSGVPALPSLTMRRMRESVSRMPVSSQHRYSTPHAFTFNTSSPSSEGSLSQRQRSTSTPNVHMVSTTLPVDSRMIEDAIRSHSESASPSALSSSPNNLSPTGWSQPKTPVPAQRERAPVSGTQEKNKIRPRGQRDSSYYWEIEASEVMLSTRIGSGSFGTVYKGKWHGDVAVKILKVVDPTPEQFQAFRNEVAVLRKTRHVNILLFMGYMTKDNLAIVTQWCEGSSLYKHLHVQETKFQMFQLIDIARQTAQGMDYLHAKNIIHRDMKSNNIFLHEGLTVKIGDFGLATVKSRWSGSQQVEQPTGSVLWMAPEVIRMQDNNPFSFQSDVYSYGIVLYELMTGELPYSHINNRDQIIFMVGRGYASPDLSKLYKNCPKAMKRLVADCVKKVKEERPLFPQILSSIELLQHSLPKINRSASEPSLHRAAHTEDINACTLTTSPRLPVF
Assay type: biochemical
For `O=C1Nc2ccc(C(=O)CN(CCO)CCCO)cc2C1=Cc1cc(Br)c(O)c(Br)c1` [Example 70, 3-(3,5-Dibromo-4-hydroxy-benzylidene)-5-{2-[(N-2-hydroxy-ethyl)-N-(3-hydroxy-propyl)-amino]-acetyl}-1,3-dihydro-indol-2-one], the IC50 was < 1000 nM.
In the case of `O=C1Nc2ccc(-c3nnn[nH]3)cc2C1=Cc1cc(Br)c(O)c(Br)c1` [Example 142, 3-(3,5-Dibromo-4-hydroxy-benzylidene)-5-(1H-tetrazol-5-yl)-1,3-dihydro-indol-2-one], the IC50 is reported as < 1000 nM.
With `O=C1Nc2ccc(C(=O)c3cccs3)cc2C1=Cc1cc(Br)c(O)c(Br)c1` [Example 29, 3-(3,5-Dibromo-4-hydroxy-benzylidene)-5-(thiophene-2-carbonyl)-1,3-dihydro-indol-2-one] the IC50 was < 1000 nM.
With `CN1CCN(CC(=O)c2ccc3c(c2)C(=Cc2cc(Br)c(O)c(Br)c2)C(=O)N3)CC1` [Example 110, 3-(3,5-Dibromo-4-hydroxy-benzylidene)-5-[2-(4-methyl-piperazin-1-yl)-acetyl]-1,3-dihydro-indol-2-one] the IC50 was < 1000 nM.
`NS(=O)(=O)c1ccc2c(c1)C(=Cc1cc(Br)c(O)c(Br)c1)C(=O)N2` [Example 33, 3-(3,5-Dibromo-4-hydroxy-benzylidene)-2-oxo-2,3-dihydro-1H-indole-5-sulfonic acid amide] was tested, and the IC50 was < 1000 nM.
For `CCOC(=O)Oc1c(Br)cc(C=C2C(=O)Nc3ccc(Cl)cc32)cc1Br` [Example 147, 2,6-Dibromo-4-[(5-chloro-2-oxo-1,2-dihydro-3H-indol-3-ylidene)methyl]phenyl ethyl carbonate], the IC50 was 10000 to 100000 nM.
With `O=C1Nc2ccc(-c3cc(C(F)(F)F)cc(C(F)(F)F)c3)cc2C1=Cc1cc(Br)c(O)c(Br)c1` [Example 169, 5-[3,5-bis(Trifluoromethyl)phenyl]-3-[(3,5-dibromo-4-hydroxyphenyl)methylidene]-1,3-dihydro-2H-indol-2-one] the IC50 was < 1000 nM.
In the case of `O=C1Nc2ccc(C3=NNC(=S)NC3)cc2C1=Cc1cc(Br)c(O)c(Br)c1` [Example 129, 3-(3,5-Dibromo-4-hydroxy-benzylidene)-5-(3-thioxo-2,3,4,5-tetrahydro-[1,2,4]-triazine-6-yl)-1,3-dihydro-indol-2-one], the IC50 is reported as < 1000 nM.
In the case of `O=C1Nc2ccc(-c3csc(Nc4ccccc4)n3)cc2C1=Cc1cc(Cl)c(O)c(Cl)c1` [Example 127, 3-(3,5-Dichloro-4-hydroxy-benzylidene)-5-(2-phenylamino-thiazol-4-yl)-1,3-dihydro-indol-2-one], the IC50 is reported as < 1000 nM.
With `O=C1Nc2ccc(NC(=O)c3ccccc3)cc2C1=Cc1cc(Br)c(O)c(Br)c1` [Example 158, N-3-[(3,5-Dibromo-4-hydroxyphenyl)methylidene]-2-oxo-2,3-dihydro-1H-indol-5-ylbenzamide] the IC50 was < 1000 nM.
For `COc1cc(C=C2C(=O)Nc3ccccc32)cc([N+](=O)[O-])c1O` [Example 101, 3-(4-Hydroxy-3-methoxy-5-nitro-benzylidene)-1,3-dihydro-indol-2-one], the IC50 was 1000 to 10000 nM.
In the case of `Cc1nc(-c2ccc3c(c2)C(=Cc2cc(Br)c(OC(=O)N(CCO)CCO)c(Br)c2)C(=O)N3)cs1` [Example 144, N[bis(2-Hydroxyethyl)]-carbamic acid 2,6 dibromo-4-[5-(2-methyl-thiazol-4-yl)-2-oxo-1,2-dihydro-indol-3-ylidenemethyl]-phenyl ester], the IC50 is reported as 10000 to 100000 nM.
In the case of `CC(C)CC(=O)c1ccc2c(c1)C(=Cc1cc(Br)c(O)c(Br)c1)C(=O)N2` [Example 5], the IC50 is reported as < 1000 nM.
With `COC(=O)c1ccc2c(c1)C(=Cc1cc(Cl)c(O)c(Cl)c1)C(=O)N2` [Example 27, 3-(3,5-Dichloro-4-hydroxy-benzylidene)-2-oxo-2,3-dihydro-1H-indole-5-carboxylic acid methyl ester] the IC50 was < 1000 nM.
With `O=C1Nc2ccc(C3=NNC(=S)NC3)cc2C1=Cc1cc(Cl)c(O)c(Cl)c1` [Example 128, 3-(3,5-Dichloro-4-hydroxy-benzylidene)-5-(3-thioxo-2,3,4,5-tetrahydro-[1,2,4]-triazine-6-yl)-1,3-dihydro-indol-2-one] the IC50 was < 1000 nM.
With `O=C(OCc1ccccc1)Oc1c(Br)cc(C=C2C(=O)Nc3ccc(Cl)cc32)cc1Br` [Example 146, Benzyl 2,6-dibromo-4-[(5-chloro-2-oxo-1,2-dihydro-3H-indol-3-ylidene)methyl]phenyl carbonate] the IC50 was 10000 to 100000 nM.
In the case of `O=C1Nc2c(F)cccc2C1=Cc1cc(Br)c(O)c(Br)c1` [Example 109, 3-(3,5-Dibromo-4-hydroxy-benzylidene)-7-fluoro-1,3-dihydro-indol-2-one], the IC50 is reported as < 1000 nM.
In the case of `COc1cc(C=C2C(=O)Nc3ccc(OC(F)(F)F)cc32)cc(Br)c1O` [Example 61, 3-(3-Bromo-4-hydroxy-5-methoxy-benzylidene)-5-trifluoromethoxy-1,3-dihydro-indol-2-one], the IC50 is reported as < 1000 nM.
`O=C1Nc2ccc(C(=O)c3ccccc3)cc2C1=Cc1cc(Br)c(O)c(Br)c1` [Example 6, 5-Benzoyl-3-(3,5-dibromo-4-hydroxy-benzylidene)-1,3 dihydro-indol-2-one] was tested, and the IC50 was < 1000 nM.
In the case of `NS(=O)(=O)c1ccc(-c2ccc3c(c2)C(=Cc2cc(Br)c(O)c(Br)c2)C(=O)N3)cc1` [Example 175, 4-3-[(3,5-Dibromo-4-hydroxyphenyl)methylidene]-2-oxo 2,3-dihydro-1H-indol-5-ylbenzenesulfonamide], the IC50 is reported as < 1000 nM.
With `O=C1Nc2c(Br)cccc2C1=Cc1cc(Cl)c(O)c(Cl)c1` [Example 67, 7-Bromo-3-(3,5-dichloro-4-hydroxy-benzylidene)-1,3-dihydro-indol-2-one] the IC50 was < 1000 nM.
`O=C1Nc2ccc(C(=O)NCCO)cc2C1=Cc1cc(Br)c(O)c(Br)c1` [Example 172, 3-[(3,5-Dibromo-4-hydroxyphenyl)methylidene]-N-(2-hydroxyethyl)-2-oxo-5-indolinecarboxamide] was tested, and the IC50 was < 1000 nM.
`O=C1Nc2ccc(C(=O)NCCCc3ccccc3)cc2C1=Cc1cc(Br)c(O)c(Br)c1` [Example 161, 3-[(3,5-Dibromo-4-hydroxyphenyl)methylidene]-2-oxo-N-(3-phenylpropyl)-5-indolinecarboxamide] was tested, and the IC50 was < 1000 nM.
`O=C1Nc2ccc(-c3cn4ccccc4n3)cc2C1=Cc1cc(Br)c(O)c(Br)c1` [Example 31, 3-(3,5-Dibromo-4-hydroxy-benzylidene)-5-(imidazo[1,2a]pyridin-2-yl)-1,3-dihydro-indol-2-one] was tested, and the IC50 was < 1000 nM.
`O=C1Nc2ccc(S(=O)(=O)N3CCCC3)cc2C1=Cc1cc(Cl)c(O)c(Cl)c1` [Example 100, 3-(3,5-Dichloro-4-hydroxy-benzylidene)-5-(pyrrolidine-1-sulfonyl)-1,3-dihydro-indol-2-one] was tested, and the IC50 was < 1000 nM.
In the case of `CCc1nc(-c2ccc3c(c2)C(=Cc2cc(Br)c(O)c(Br)c2)C(=O)N3)cs1` [Example 19, 3-(3,5-Dibromo-4-hydroxy-benzylidene)-5-(2-ethyl-thiazol-4-yl)-1,3-dihydro-indol-2-one], the IC50 is reported as < 1000 nM.
With `CCOc1cc(C=C2C(=O)Nc3ccc(OC(F)(F)F)cc32)cc(Br)c1O` [Example 59, 3-(3-Bromo-5-ethoxy-4-hydroxy-benzylidene)-5-trifluoromethoxy-1,3-dihydro-indol-2-one] the IC50 was < 1000 nM.
In the case of `O=C1Nc2ccc(Br)cc2C1=Cc1cc(Cl)c(O)c(Cl)c1` [Example 41, 5-Bromo-3-(3,5-dichloro-4-hydroxy-benzylidene)-1,3-dihydro-indol-2-one], the IC50 is reported as < 1000 nM.
